Data taken from US8637679B2, “Process for the isolation of organic compounds useful for the treatment of cancer” (Council of Scientific and Industrial Research, priority 2011, dated 2014).

Test system: Normal cells [heart, liver, muscle and peripheral blood mononuclear cells (PBMC)]
Experiment: In vitro testing on normal cells
Assay type: cell-based, rat
Experimental: The cardiomyocytes from 2-day-old neonatal rat were isolated. Briefly, heart was excised and minced in pre warmed (37° C.) Ads buffer (1.2M NaCl, 198 mM HEPES, 54 mM KCl, 8.3 mM MgSO4, 55.4 mM glucose, 95 mM NaH2PO4), digested in typeII Collagenase 0.05% and Pancreatin in 3-successive digestions of 15 minutes each. Supernatant was pooled and cells palleted at 2000 g, 10 minutes. Cells were resuspended and plated in collagen coated T-25 flaks in Medium-199 enriched with 10% Fetal Bovine Serum and 1% antibiotic-antimycotic.
The hepatocytes from 2-day-old neonatal rat were isolated. Briefly, The liver were perfused through the portal vein with a calcium-free solution consisting of 150 mM NaCl, 2.8 mM KCl, 5.5 mM glucose, and 25 mM HEPES (pH 7.6) for 10 min, followed by mincing and digestion in DMEM containing 0.05% collagenase type IV for 30 minutes. The cells were centrifuged (2000 g, 10 minutes) and dispersed in DMEM enriched with 10% fetal Bovine Serum, 1% antibiotic-antimycotic.
The skeletal muscles from 2-day-old neonatal rat were isolated. Briefly, Soleus muscles were dissected minced and digested with 0.2% Type II Collagenase and 0.05% trypsin in Phosphate buffered Saline (PBS) pH 7.4, 0.15 M NaCl. […]
Viability of cancer cell lines after treatment as at the indicated times was determined by MTT assay. […] Absorbance was recorded at 550 nm with 96 well plate readers.

Which results are given for `CC(C)=CCCC1(C)C=Cc2c(c(C)cc3c2[nH]c2cc(O)ccc23)O1` (centres unmarked) [Mahanine, mahanine]?
inhibition at 50 µM (PBMC, mahanine at 50 μM, normal rat tissue cells, Vero and WI-38): 15 to 20%; sensitivity of normal cells (heart, liver, muscle and PBMC, in vitro): less sensitive
